In the supplement of paper PMC5908809:

How the values were obtained:
[1] = system: normal NK cells expanded with K562-aAPC; assay: percent inhibition of viability; higher = more inhibition; details: 72 h, IL-2 2.5 ng/mL
Description: (§1)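 Drug sensitivity and resistance testing on K562-aAPC-expanded normal NK cells: 5 concentrations (10-fold steps over a 10,000-fold range), 72 h at 37 °C, viability by CellTiter-Glo normalised to DMSO and benzethonium chloride controls; DSS from the fitted curve.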

[2] = system: normal NK cells expanded with K562-aAPC; assay: drug sensitivity score (DSS) (DSS units); higher = more sensitive; extreme values may be limits of the assay; details: 72 h; IL-2 2.5 ng/mL
Description: as §1

DERL-7 (IL-2 2.5 ng/mL) [3] = assay: as above; details: 72 h
[4] = system: normal primary NK cells, pool 1 (3 donors) (IL-2 2.5 ng/mL); assay: as above; details: 72 h
NKL (IL-2 2.5 ng/mL) [5] = assay: as above; details: 72 h
KAI3 (IL-2 2.5 ng/mL) [6] = assay: as above; details: 72 h
IMC-1 (IL-2 20 ng/mL) [7] = assay: as above; details: 72 h
[8] = system: normal primary NK cells, pool 1 (3 donors), resting (IL-2 0 ng/mL); assay: as above; details: 72 h
SNK-6 (IL-2 2.5 ng/mL) [9] = assay: as above; details: 72 h
[10] = system: normal primary NK cells, pool 2 (3 donors) (IL-2 2.5 ng/mL); assay: as above; details: 72 h
[11] = system: normal primary NK cells, pool 3 (3 donors) (IL-2 2.5 ng/mL); assay: as above; details: 72 h
YT (IL-2 2.5 ng/mL) [12] = assay: as above; details: 72 h
KHYG-1 (IL-2 2.5 ng/mL) [13] = assay: as above; details: 72 h
NK-YS (IL-2 2.5 ng/mL) [14] = assay: as above; details: 72 h
NK-92 (IL-2 2.5 ng/mL) [15] = assay: as above; details: 72 h
DERL-7 (IL-2 2.5 ng/mL) [16] = assay: percent inhibition of viability; higher = more inhibition; details: 72 h
[17] = system: normal primary NK cells, pool 1 (3 donors) (IL-2 2.5 ng/mL); assay: as above; details: 72 h
NKL (IL-2 2.5 ng/mL) [18] = assay: as above; details: 72 h
KAI3 (IL-2 2.5 ng/mL) [19] = assay: as above; details: 72 h
IMC-1 (IL-2 20 ng/mL) [20] = assay: as above; details: 72 h
[21] = system: normal primary NK cells, pool 1 (3 donors), resting (IL-2 0 ng/mL); assay: as above; details: 72 h
SNK-6 (IL-2 2.5 ng/mL) [22] = assay: as above; details: 72 h
[23] = system: normal primary NK cells, pool 2 (3 donors) (IL-2 2.5 ng/mL); assay: as above; details: 72 h
[24] = system: normal primary NK cells, pool 3 (3 donors) (IL-2 2.5 ng/mL); assay: as above; details: 72 h
YT (IL-2 2.5 ng/mL) [25] = assay: as above; details: 72 h
KHYG-1 (IL-2 2.5 ng/mL) [26] = assay: as above; details: 72 h
NK-YS (IL-2 2.5 ng/mL) [27] = assay: as above; details: 72 h
NK-92 (IL-2 2.5 ng/mL) [28] = assay: as above; details: 72 h

COc1cc2c(NC3CCN(C(C)C)CC3)nc(C3CCCCC3)nc2cc1OCCCN1CCCC1 [UNC0638] (max concentration tested 10000 nM)
percent inhibition of viability [%]
Details | 1 nM | 10 nM | 100 nM | 1000 nM | 10000 nM
DERL-7 (IL-2 2.5 ng/mL) [16] | 2.53 | 3.85 | -3.65 | 12.8 | 101
IMC-1 (IL-2 20 ng/mL) [20] | -2.5 | -1.52 | 2.54 | 4.7 | 100
KAI3 (IL-2 2.5 ng/mL) [19] | -1.49 | 2.96 | 15.3 | 64.9 | 107
KHYG-1 (IL-2 2.5 ng/mL) [26] | 3.45 | -2.32 | 4.32 | 6.75 | 102
NK-92 (IL-2 2.5 ng/mL) [28] | 5.67 | 5.27 | 21.5 | 21.4 | 104
NK-YS (IL-2 2.5 ng/mL) [27] | -0.95 | -0.93 | 1.21 | 6.18 | 103
NKL (IL-2 2.5 ng/mL) [18] | -8.37 | -2.53 | -3.47 | 10 | 103
SNK-6 (IL-2 2.5 ng/mL) [22] | -6.73 | -2.24 | 11.7 | 23.5 | 101
YT (IL-2 2.5 ng/mL) [25] | -0.28 | -1.09 | 4.71 | 0.39 | 102
[1] | -0.44 | 0.89 | 0.9 | 3.67 | 100
[17] | 4.83 | -1.29 | 1.24 | -5.62 | 100
[21] | 7.27 | -7.21 | -5.23 | 10.6 | 100
[23] | -8.36 | -2.48 | -3.63 | 1.06 | 100
[24] | -4.55 | -0.2 | 2.47 | -3.99 | 100

Details | drug sensitivity score
DERL-7 (IL-2 2.5 ng/mL) [3] | 7.69
IMC-1 (IL-2 20 ng/mL) [7] | 6.26
KAI3 (IL-2 2.5 ng/mL) [6] | 14.4
KHYG-1 (IL-2 2.5 ng/mL) [13] | 6.72
NK-92 (IL-2 2.5 ng/mL) [15] | 8.98
NK-YS (IL-2 2.5 ng/mL) [14] | 6.67
NKL (IL-2 2.5 ng/mL) [5] | 7.29
SNK-6 (IL-2 2.5 ng/mL) [9] | 9.2
YT (IL-2 2.5 ng/mL) [12] | 5.79
[2] | 6.1
[4] | 5.15
[8] | 7.28
[10] | 5.75
[11] | 5.3

CN1CC[C@H](c2c(O)cc(O)c3c(=O)cc(-c4ccccc4Cl)oc23)[C@H](O)C1 [Alvocidib] (max concentration tested 10000 nM)
percent inhibition of viability [%]
Details | 1 nM | 10 nM | 100 nM | 1000 nM | 10000 nM
DERL-7 (IL-2 2.5 ng/mL) [16] | -0.06 | -8.43 | 20 | 99.6 | 101
IMC-1 (IL-2 20 ng/mL) [20] | -6.84 | -2.57 | -23.3 | 98.5 | 100
KAI3 (IL-2 2.5 ng/mL) [19] | -3.44 | 8.97 | 69.4 | 99.3 | 104
KHYG-1 (IL-2 2.5 ng/mL) [26] | 3.43 | -0.43 | 31.6 | 103 | 106
NK-92 (IL-2 2.5 ng/mL) [28] | 1.2 | -10.9 | 40.2 | 99.5 | 104
NK-YS (IL-2 2.5 ng/mL) [27] | -0.27 | 3.87 | 33.1 | 98.8 | 103
NKL (IL-2 2.5 ng/mL) [18] | -9.8 | 1.18 | 36 | 101 | 109
SNK-6 (IL-2 2.5 ng/mL) [22] | 16.1 | 27.2 | 40 | 54.8 | 50.7
YT (IL-2 2.5 ng/mL) [25] | 1.4 | 6.09 | 33.3 | 101 | 104
[1] | -1.75 | -1.8 | 2.89 | 100 | 101
[17] | -0.02 | -24.2 | 17.8 | 96.8 | 97.3
[21] | 6.48 | -25.6 | -4.81 | 88.6 | 91.6
[23] | -15.2 | -10.6 | 25.6 | 93.8 | 95.7
[24] | -16.4 | -9.75 | 22.2 | 97.3 | 98.7

Details | drug sensitivity score
DERL-7 (IL-2 2.5 ng/mL) [3] | 21.2
IMC-1 (IL-2 20 ng/mL) [7] | 16.6
KAI3 (IL-2 2.5 ng/mL) [6] | 26.8
KHYG-1 (IL-2 2.5 ng/mL) [13] | 22.6
NK-92 (IL-2 2.5 ng/mL) [15] | 23.4
NK-YS (IL-2 2.5 ng/mL) [14] | 22.1
NKL (IL-2 2.5 ng/mL) [5] | 23
SNK-6 (IL-2 2.5 ng/mL) [9] | 18.3
YT (IL-2 2.5 ng/mL) [12] | 22.6
[2] | 18.4
[4] | 20.4
[8] | 15.8
[10] | 21.1
[11] | 21.3
